Tests used:
[1] = test system: T. versicolor; assay: agar plate method, inhibition of fungus growth; format: cell-based; conditions: for percent inhibition (retardation) of the fungal growth, T. versicolor: aqueous solution
Experimental: (§1) The efficacy of aqueous solutions of alkyldimethylbenzyl ammonium lauryl sulfate and didecyldimethyl ammonium lauryl sulfate to inhibit fungus growth was evaluated by the agar plate method known in the art. Also tested were two commercially known biocides: didecyldimethyl ammonium chloride (Bardac® 2080) and alkyldimethylbenzyl ammonium chloride (Barquat® MB-80).
(§2) The test data are reported as a percent inhibition (retardation) of the fungal growth.

[2] = test system: P. placenta; assay: agar plate method, inhibition of fungus growth; format: cell-based; conditions: for percent inhibition (retardation) of the fungal growth, P. placenta: aqueous solution
Experimental: as §1, §2

[3] = test system: C. globosum; assay: agar plate method, inhibition of fungus growth; format: cell-based; conditions: for percent inhibition (retardation) of the fungal growth, C. globosum: aqueous solution
Experimental: as §1, §2

[4] = test system: G. trabeum; assay: agar plate method, inhibition of fungus growth; format: cell-based; conditions: for percent inhibition (retardation) of the fungal growth, G. trabeum: aqueous solution
Experimental: as §1, §2

[5] = test system: brown-rot fungus G. trabeum; assay: standard soil block test (American Wood Preservation Association E10) on extruded composites; conditions: extruded samples containing the salt vs conventional lubricant control; 22 weeks G. trabeum
Experimental: The efficacy of extruded samples containing alkyldimethylbenzyl ammonium lauryl sulfate or didecyldimethyl ammonium lauryl sulfate to inhibit fungal growth was evaluated by the standard soil block test method (American Wood Preservation Association E10) known in the art. The biocide effectiveness is determined by % weight loss in wood component of the tested samples. The sample blocks (13 mm×14 mm×14 mm) were exposed to the brown-rot fungus G. trabeum for 22 weeks, with four replicates per treatment.

[6] = Trametes versicolor, read-out: percent inhibition (retardation) of the fungal growth, T. versicolor
[7] = read-out: percent inhibition (retardation) of the fungal growth, P. placenta
[8] = Chaetomium globosum, read-out: percent inhibition (retardation) of the fungal growth, C. globosum
[9] = Gloeophyllum trabeum, read-out: percent inhibition (retardation) of the fungal growth, G. trabeum

Compound	inhibition at 50 ppm [1, 6]	inhibition at 500 ppm [1, 6]	inhibition at 50 ppm [2, 7]	inhibition at 500 ppm [2, 7]	inhibition at 50 ppm [3, 8]	inhibition at 500 ppm [3, 8]	inhibition at 50 ppm [4, 9]	inhibition at 500 ppm [4, 9]	weight loss compared with control samples [5]	percent inhibition (retardation) of the fungal growth, T. versicolor ([1]; 50 ppm)	percent inhibition (retardation) of the fungal growth, T. versicolor ([1]; 500 ppm)	percent inhibition (retardation) of the fungal growth, P. placenta ([2]; 50 ppm)	percent inhibition (retardation) of the fungal growth, P. placenta ([2]; 500 ppm)	percent inhibition (retardation) of the fungal growth, C. globosum ([3]; 50 ppm)	percent inhibition (retardation) of the fungal growth, C. globosum ([3]; 500 ppm)	percent inhibition (retardation) of the fungal growth, G. trabeum ([4]; 50 ppm)	percent inhibition (retardation) of the fungal growth, G. trabeum ([4]; 500 ppm)
CCCCCCCCCC[N+](C)(C)CCCCCCCCCC [didecyldimethyl ammonium chloride, reference compound]	36.8%	80.7%	88.4%	89.2%	68.2%	74.3%	78.4%	82.4%									
Didecyldimethyl ammonium lauryl sulfate									significantly lower weight loss than the control samples	44.0%	81.3%	82.6%	86.0%	68.0%	78.7%	58.0%	80.8%
alkyldimethylbenzyl ammonium chloride [reference compound]										55.0%	85.0%	86.8%	87.5%	63.8%	81.8%	82.1%	89.0%
alkyldimethylbenzyl ammonium lauryl sulfate									significantly lower weight loss than the control samples	32.2%	72.9%	83.0%	86.6%	64.5%	75.6%	51.7%	82.3%

— patent US7582694B2, “Antimicrobial lubricant for wood fiber-plastic composites” (Lonza, Inc., priority 2002, dated 2009)
